Reference: patent publication US20220274979A1 (Bayer Pharma Aktiengesellschaft, priority 2018, published 2022)
Like-named read-outs stand apart in the source and are kept apart here.

Legend:
[1] = molecular target: T1, hSOS1 (hSOS1-mediated loading of hK-RasG12C-GDP) (Homo sapiens, UniProt Q07889); test: Biochemical Assay 3: hK-RasG12C activation assay by hSOS1 (loading with fluorescent GTP analog, HTRF); details: no GTP
T1 construct: hSOS1 (amino acid 564-1049); made in house; host or cells: E. coli BL21 (DE3)
T1 sequence (Q07889 with tags, fused parts or gaps): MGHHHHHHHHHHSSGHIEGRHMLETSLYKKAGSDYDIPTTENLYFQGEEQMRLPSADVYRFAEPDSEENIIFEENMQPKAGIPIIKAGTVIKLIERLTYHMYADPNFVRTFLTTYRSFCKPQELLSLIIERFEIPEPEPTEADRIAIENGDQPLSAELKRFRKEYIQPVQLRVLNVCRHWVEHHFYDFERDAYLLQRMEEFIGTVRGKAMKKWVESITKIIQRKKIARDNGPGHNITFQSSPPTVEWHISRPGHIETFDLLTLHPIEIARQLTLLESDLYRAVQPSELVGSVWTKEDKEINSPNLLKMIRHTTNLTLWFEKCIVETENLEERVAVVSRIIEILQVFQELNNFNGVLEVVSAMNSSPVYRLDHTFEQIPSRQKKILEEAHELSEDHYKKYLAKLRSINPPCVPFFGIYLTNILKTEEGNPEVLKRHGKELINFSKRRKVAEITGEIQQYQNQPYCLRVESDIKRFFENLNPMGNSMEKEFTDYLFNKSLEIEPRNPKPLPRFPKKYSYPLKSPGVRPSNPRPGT
Excerpt: Biochemical Assay 3: hK-RasG12C Activation Assay by hSOS1
K-Ras is a small GTPase that can bind GDP and GTP. The guanine nucleotide exchange factor SOS1 catalyzes the activation of K-Ras by promoting the exchange of GDP to GTP. SOS1 binds to K-Ras-GDP thereby opening the GDP-binding pocket to facilitate GDP release. Rebinding of excess nucleotide leads to dissociation of the K-Ras-SOS1 intermediate complex leaving K-Ras loaded with the nucleotide.
This assay quantifies human SOS1-(hSOS1-)mediated loading of human K-Ras^G12C-GDP (hK-RasG12C-GDP) with a fluorescent GTP-analog. Detection of successful loading is achieved by measuring homogenous time-resolved fluorescence resonance energy transfer (HTRF) from antiGST-Terbium (FRET donor) bound to GST-hK-RasG12C (see below) to the loaded fluorescent GTP analog (FRET-acceptor).
The fluorescent GTP-analog EDA-GTP-Dy647P1 (2′/3′-O-(2-Aminoethyl-carbamoyl)-guanosine-5′-triphosphate labelled with Dy647P1 (Dyomics GmbH, Germany)) was synthesized by Jena Biosciences GmbH (Germany) and supplied as a 1 mM aqueous solution.
(§1) The assay buffer contained 10 mM HEPES pH 7.4 (Applichem), 150 mM NaCl (Sigma), 5 mM MgCl2 (Sigma), 1 mM DTT (Thermofisher), 0.05% BSA Fraction V, pH 7.0, (ICN Biomedicals), 0.0025% (v/v) Igepal (Sigma).
Concentrations of protein batches used were optimized to be within the linear range of the HTRF signal. A hRas working solution was prepared in assay buffer containing typically 100 nM GST-hK-RasG12C and 2 nM antiGST-Tb (Cisbio, France). A hSOS1 working solution was prepared in assay buffer containing typically 20 nM hSOS1 and 200 nM EDA-GTP-Dy647P1. An inhibitor control solution was prepared in assay buffer containing 200 nM EDA-GTP-Dy647P1 without hSOS1.
(§2) Fifty nl of a 100-fold concentrated solution of the test compound in DMSO were transferred into a black microtiter test plate (384 or 1536, Greiner Bio-One, Germany) For this, either a Hummingbird liquid handler (Digilab, Mass., USA) or an Echo acoustic system (Labcyte, Calif., USA) was used.
(§3) All steps of the assay were performed at 20° C. A volume of 2.5 μl of the hRas working solution was added to all wells of the test plate using a Multidrop dispenser (Thermo Labsystems). After 10 min. preincubation, 2.5 μl of the hSOS1 working solution were added to all wells except for those wells at the side of the test plate that were subsequently filled with 2.5 μl of the inhibitor control solution. After 30 mM incubation the fluorescence was measured with a Pherastar (BMG, Germany) using the HTRF module (excitation 337 nm, emission 1: 620 nm, emission 2:665 nm).
(§4) IC50 values were calculated by 4-Parameter fitting using a commercial software package (Genedata Screener, Switzerland).

[2] = molecular target: T2, hSOS1 (hSOS1-mediated nucleotide exchange of hK-RasG12C) (Homo sapiens, UniProt Q07889); test: Biochemical Assay 2: hK-RasG12C activation assay by hSOS1 at high GTP concentration (HTRF nucleotide exchange); details: high GTP (50 μM GTP)
T2 construct: hSOS1 (amino acid 564-1049); made in house; host or cells: E. coli BL21 (DE3)
T2 sequence (Q07889 with tags, fused parts or gaps): T1 sequence (Q07889 with tags, fused parts or gaps)
Excerpt: Biochemical Assay 2: hK-RasG12C Activation Assay by hSOS1 at High GTP Concentration
This assay quantifies human SOS1-mediated nucleotide exchange of human K-Ras^G12C (hK-RasG12C) preloaded with a fluorescent […] and in presence of an excess of free GTP. Loaded hK-RasG12C generates a high HTRF-signal by energy transfer from antiGST-Terbium (FRET donor) bound to hK-Ras to the loaded fluorescent GDP analog (FRET-acceptor). hSOS1 activity exchanges the fluorescent GDP for non-fluorescent GTP and therefore leads to a reduction of the HTRF signal.
The fluorescent GDP-analog EDA-GDP-Dy647P1 (2′/3′-O-(2-Aminoethyl-carbamoyl)-guanosine-5′-diphosphate labelled with Dy647P1 (Dyomics GmbH, Germany)) was synthesized by Jena Biosciences GmbH (Germany) and supplied as a 1 mM aqueous solution.
Concentrations of protein batches used were optimized to be within the linear range of the HTRF signal.
Addition of 20 μl 1 M MgCl2 (Sigma) to final 40 mM and store on ice. Purification into buffer (10 mM HEPES pH 7.4 (Applichem), 150 mM NaCl (Sigma), 5 mM MgCl2 (Sigma)) by use of a PD-Minitrap desalting column (GE Healthcare). Concentration of 1 ml purified hK-Ras-GDP-Dy647 is approx. 4-5 μM.
as §1
A Ras working solution was prepared in assay buffer containing typically 80 nM loaded GST-hK-RasG12C-EDA-GDP-Dy647P1 and 2 nM antiGST-Tb (Cisbio, France).
Alternatively, the inhibitor control solution was prepared by supplementing the hSOS1 working solution with 20 μM of 6,7-dimethoxy-N-[(1R)-1-(1-naphthyl)ethyl]quinazolin-4-amine which was used to calibrate the assay.
as §2
as §3, with “Ras” for “hRas”, “2” for “10”, “20 min.” for “30 mM”, “1:620” for “1: 620”
as §4

[3] = molecular target: T3, hK-RasG12C - hSOS1 interaction (Homo sapiens, UniProt Q07889); test: Biochemical Assay 1: hK-RasG12C interaction assay with hSOS1 (HTRF); type: binding
T3 construct: hSOS1 (amino acid 564-1049); made in house; host or cells: E. coli BL21 (DE3)
T3 sequence (Q07889 with tags, fused parts or gaps): T1 sequence (Q07889 with tags, fused parts or gaps)
Procedure: Biochemical Assay 1: hK-RasG12C Interaction Assay with hSOS1
This assay quantifies the equilibrium interaction of human SOS1 (hSOS1) with human K-Ras^G12C (hK-RasG12C). Detection of the interaction is achieved by measuring homogenous time-resolved fluorescence resonance energy transfer (HTRF) from antiGST-Europium (FRET donor) bound to GST-K-RasG12C to anti-6His-XL665 bound to His-tagged hSOS1 (FRET-acceptor).
The assay buffer contained 5 mM HEPES pH 7.4 (Applichem), 150 mM NaCl (Sigma), 10 mM EDTA (Promega), 1 mM DTT (Thermofisher), 0.05% BSA Fraction V, pH 7.0, (ICN Biomedicals), 0.0025% (v/v) Igepal (Sigma) and 100 mM KF (FLUKA).
Concentrations of protein batches used were optimized to be within the linear range of the HTRF signal. A Ras working solution was prepared in assay buffer containing typically 10 nM GST-hK-RasG12C and 2 nM antiGST-Eu(K) (Cisbio, France). A SOS1 working solution was prepared in assay buffer containing typically 20 nM His-hSOS1 and 10 nM anti-6His-XL665 (Cisbio, France). An inhibitor control solution was prepared in assay buffer containing 10 nM anti-6His-XL665 without hSOS1.
as §2
as §3, with “Ras” for “hRas”, “[…]” for “10 min.”, “SOS1” for “hSOS1”, “[…]” for “30”, “1:620” for “1: 620”
as §4

With `Cc1nc(NC(C)c2ccc(-c3ccccc3CN(C)C)s2)c2cc(N3CCNC(=O)C3)ncc2n1` (centres unmarked) [Example 50, 4-(4-{[1-(5-{2-[(dimethylamino)methyl]phenyl}thiophen-2-yl)ethyl]amino}-2-methylpyrido[3,4-d]pyrimidin-6-yl)piperazin-2-one] the IC50 [1] was 0.0548 µM and the IC50 [2] was 0.0488 µM.
`CCCOc1cc2c(NC(C)c3ccc(-c4ccccc4CN(C)C)s3)nc(C)nc2cn1` (centres unmarked) [Example 65, N-[1-(5-{2-[(dimethylamino)methyl]phenyl}thiophen-2-yl)ethyl]-2-methyl-6-propoxypyrido[3,4-d]pyrimidin-4-amine] showed an IC50 [2] of 0.0328 µM.
`Cc1nc(NC(C)c2ccc(-c3ccccc3CN(C)C)s2)c2cc(OCCN(C)C)ncc2n1` (centres unmarked) [Example 66, 6-[2-(dimethylamino)ethoxy]-N-[1-(5-{2-[(dimethylamino)methyl]phenyl}thiophen-2-yl)ethyl]-2-methylpyrido[3,4-d]pyrimidin-4-amine] was tested, and the IC50 ([3]; values expressed as IC50) was 0.0304 µM and the IC50 [2] was 0.0227 µM.
`CC(=O)N(c1cccc(C(=O)NC2CN(c3cc4c(NC(C)c5ccc(-c6ccccc6CN(C)C)s5)nc(C)nc4cn3)C2)c1)[C@@H]1CCN(C(=O)OC(C)(C)C)C1` (stereo partly drawn) [Example 97, tert-butyl (3R)-3-[acetyl(3-{[1-(4-{[1-(5-{2-[(dimethylamino)methyl]phenyl}-2-thienyl)-ethyl]amino}-2-methylpyrido[3,4-d]pyrimidin-6-yl)azetidin-3-yl]carbamoyl}-phenyl)amino]pyrrolidine-1-carboxylate] showed an IC50 ([3]; values expressed as IC50) of 0.293 µM, an IC50 [1] of 0.554 µM and an IC50 [2] of 0.298 µM.
`CC(=O)N(c1cccc(C(=O)NC2CN(c3cc4c(NC(C)c5ccc(-c6ccccc6CN(C)C)s5)nc(C)nc4cn3)C2)c1)C1CCN(C(=O)OC(C)(C)C)CC1` (centres unmarked) [Example 98, tert-butyl 4-[acetyl(3-{[1-(4-{[1-(5-{2-[(dimethylamino)methyl]phenyl}thiophen-2-yl)ethyl]amino}-2-methylpyrido[3,4-d]pyrimidin-6-yl)azetidin-3-yl]carbamoyl}-phenyl)amino]piperidine-1-carboxylate] was tested, and the IC50 [3] was 0.271 µM, the IC50 [1] was 0.62 µM and the IC50 [2] was 0.428 µM.
`Cc1nc(NC(C)c2ccc(-c3ccccc3CN(C)C)s2)c2cc(N3CC(NCc4ccccc4)C3)ncc2n1` (centres unmarked) [Example 99, 6-[3-(benzylamino)azetidin-1-yl]-N-[1-(5-{2-[(dimethylamino)methyl]phenyl}thiophen-2-yl)ethyl]-2-methylpyrido[3,4-d]pyrimidin-4-amine] showed an IC50 ([3]; values expressed as IC50) of 0.0532 µM, an IC50 [1] of 0.0825 µM and an IC50 [2] of 0.0588 µM.
`Cc1nc(NC(C)c2ccc(-c3ccccc3CN(C)C)s2)c2cc(N3CC(NC(=O)N4CCS(=O)(=O)CC4)C3)ncc2n1` (centres unmarked) [Example 100, N-[1-(4-{[1-(5-{2-[(dimethylamino)methyl]phenyl}thiophen-2-yl)ethyl]amino}-2-methylpyrido[3,4-d]pyrimidin-6-yl)azetidin-3-yl]thiomorpholine-4-carboxamide 1,1-dioxide] showed an IC50 ([3]; values expressed as IC50) of 0.0858 µM, an IC50 [1] of 0.156 µM and an IC50 [2] of 0.103 µM.
